Consider four cell lines from the supplement of paper PMC10307832.

Test in all cases: relative viability (nuclei count vs DMSO), 5 days (fraction); higher = more cells survive
Compound in the test “Erlotinib + Decitabine”: C#Cc1cccc(Nc2ncnc3cc(OCCOC)c(OCCOC)cc23)c1 [Erlotinib] + Nc1ncn([C@H]2C[C@H](O)[C@@H](CO)O2)c(=O)n1 [Decitabine] (partner 2 µM)
The procedure, abridged:
(§1)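 Lung cancer cell lines were pin-tool dosed in 1536-well plates on the day after seeding, with either a lone drug or a fixed anchor-drug dose plus five library-drug doses (not always all listed) in √10 steps. Nuclei were counted on 4× images after 5 days. Relative viability is the ratio of treated-well to vehicle-well nuclei counts, with each value a median of duplicate plates.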

Compound in the test “AT9283 + Navitoclax”: O=C(Nc1c[nH]nc1-c1nc2ccc(CN3CCOCC3)cc2[nH]1)NC1CC1 [AT9283] + CC1(C)CCC(c2ccc(Cl)cc2)=C(CN2CCN(c3ccc(C(=O)NS(=O)(=O)c4ccc(N[C@H](CCN5CCOCC5)CSc5ccccc5)c(S(=O)(=O)C(F)(F)F)c4)cc3)CC2)C1 [Navitoclax] (partner 0.5 µM)
The essentials: as §1

Compound in the test “AT9283 + Pictilisib”: O=C(Nc1c[nH]nc1-c1nc2ccc(CN3CCOCC3)cc2[nH]1)NC1CC1 [AT9283] + CS(=O)(=O)N1CCN(Cc2cc3nc(-c4cccc5[nH]ncc45)nc(N4CCOCC4)c3s2)CC1 [Pictilisib] (partner 1 µM)
The procedure, abridged: as §1

Compound in the test “AT9283 + AZD7762”: O=C(Nc1c[nH]nc1-c1nc2ccc(CN3CCOCC3)cc2[nH]1)NC1CC1 [AT9283] + NC(=O)Nc1cc(-c2cccc(F)c2)sc1C(=O)N[C@H]1CCCNC1 [AZD7762] (partner 0.2 µM)
The essentials: as §1

Compound in the test “AT9283 + Vorinostat”: O=C(Nc1c[nH]nc1-c1nc2ccc(CN3CCOCC3)cc2[nH]1)NC1CC1 [AT9283] + O=C(CCCCCCC(=O)Nc1ccccc1)NO [Vorinostat] (partner 1 µM)
The procedure, abridged: as §1

On to NCI-H596, for which the relative viability turned out to be 1.21 with Erlotinib + Decitabine (first compound 0.02 µM); 0.926 with Erlotinib + Decitabine (first compound 0.2 µM); 0.999 with Erlotinib + Decitabine (first compound 0.6325 µM); 0.985 in the test with Erlotinib + Decitabine (first compound 2 µM); 1.05 in the test with AT9283 + Navitoclax (first compound 0.003 µM); 0.839 in the test with AT9283 + Navitoclax (first compound 0.03 µM). The relative viability in the test with AT9283 + Navitoclax (first compound 0.09487 µM) is 0.689; with AT9283 + Navitoclax (first compound 0.3 µM), 0.481; with AT9283 + Pictilisib (first compound 0.003 µM) it was 0.391; in the test with AT9283 + Pictilisib (first compound 0.03 µM), 0.415; with AT9283 + Pictilisib (first compound 0.09487 µM), 0.412; with AT9283 + Pictilisib (first compound 0.3 µM), 0.373. The relative viability with AT9283 + AZD7762 (first compound 0.003 µM) stood at 1.01; with AT9283 + AZD7762 (first compound 0.03 µM) it was 1.2; with AT9283 + AZD7762 (first compound 0.09487 µM) it was 0.976; with AT9283 + AZD7762 (first compound 0.3 µM) it was 0.595; with AT9283 + Vorinostat (first compound 0.003 µM), 0.642; in the test with AT9283 + Vorinostat (first compound 0.03 µM), 0.675. Moreover, the relative viability came to 0.686 with AT9283 + Vorinostat (first compound 0.09487 µM) and 0.428 in the test with AT9283 + Vorinostat (first compound 0.3 µM).
As to NCI-H1734, the relative viability was determined as 0.488 in the test with Erlotinib + Decitabine (first compound 0.02 µM); 0.485 in the test with Erlotinib + Decitabine (first compound 0.2 µM); 0.463 with Erlotinib + Decitabine (first compound 0.6325 µM); 0.509 in the test with Erlotinib + Decitabine (first compound 2 µM); 0.839 in the test with AT9283 + Navitoclax (first compound 0.003 µM); 0.318 with AT9283 + Navitoclax (first compound 0.03 µM). In addition, the relative viability with AT9283 + Navitoclax (first compound 0.09487 µM) was 0.131; with AT9283 + Navitoclax (first compound 0.3 µM) it was 0.127; with AT9283 + Pictilisib (first compound 0.003 µM), 0.406; with AT9283 + Pictilisib (first compound 0.03 µM), 0.271; with AT9283 + Pictilisib (first compound 0.09487 µM) it was 0.299; with AT9283 + Pictilisib (first compound 0.3 µM), 0.221. Besides, the relative viability with AT9283 + AZD7762 (first compound 0.003 µM) amounted to 0.533; with AT9283 + AZD7762 (first compound 0.03 µM) it was 0.274; in the test with AT9283 + AZD7762 (first compound 0.09487 µM) it was 0.225; in the test with AT9283 + AZD7762 (first compound 0.3 µM), 0.245; with AT9283 + Vorinostat (first compound 0.003 µM), 0.757; in the test with AT9283 + Vorinostat (first compound 0.03 µM), 0.305. The relative viability in the test with AT9283 + Vorinostat (first compound 0.09487 µM) turned out to be 0.259; with AT9283 + Vorinostat (first compound 0.3 µM) it was 0.237.
Turning to LC-2-ad, the relative viability worked out at 0.889 with Erlotinib + Decitabine (first compound 0.02 µM); 0.79 in the test with Erlotinib + Decitabine (first compound 0.2 µM); 0.735 in the test with Erlotinib + Decitabine (first compound 0.6325 µM); 0.656 in the test with Erlotinib + Decitabine (first compound 2 µM); 0.506 in the test with AT9283 + Navitoclax (first compound 0.003 µM); 0.232 with AT9283 + Navitoclax (first compound 0.03 µM). For the same cell line, the relative viability with AT9283 + Navitoclax (first compound 0.09487 µM) came out at 0.0899; with AT9283 + Navitoclax (first compound 0.3 µM) it was 0.101; with AT9283 + Pictilisib (first compound 0.003 µM), 0.396; with AT9283 + Pictilisib (first compound 0.03 µM) it was 0.194; with AT9283 + Pictilisib (first compound 0.09487 µM), 0.0807; with AT9283 + Pictilisib (first compound 0.3 µM), 0.0727. Further, the relative viability came out at 0.848 with AT9283 + AZD7762 (first compound 0.003 µM); 0.794 with AT9283 + AZD7762 (first compound 0.03 µM); 0.398 with AT9283 + AZD7762 (first compound 0.09487 µM); 0.227 with AT9283 + AZD7762 (first compound 0.3 µM); 0.696 with AT9283 + Vorinostat (first compound 0.003 µM); 0.251 with AT9283 + Vorinostat (first compound 0.03 µM). Besides, the relative viability in the test with AT9283 + Vorinostat (first compound 0.09487 µM) is 0.199; with AT9283 + Vorinostat (first compound 0.3 µM), 0.157.
In the case of NCI-H2085, the relative viability with Erlotinib + Decitabine (first compound 0.02 µM) was 0.573; with Erlotinib + Decitabine (first compound 0.2 µM) it was 0.585; with Erlotinib + Decitabine (first compound 0.6325 µM) it was 0.531; with Erlotinib + Decitabine (first compound 2 µM), 0.496; with AT9283 + Navitoclax (first compound 0.003 µM) it was 1.05; in the test with AT9283 + Navitoclax (first compound 0.03 µM), 0.815. Also, the relative viability came to 0.671 with AT9283 + Navitoclax (first compound 0.09487 µM); 0.244 with AT9283 + Navitoclax (first compound 0.3 µM); 0.404 with AT9283 + Pictilisib (first compound 0.003 µM); 0.417 in the test with AT9283 + Pictilisib (first compound 0.03 µM); 0.19 with AT9283 + Pictilisib (first compound 0.09487 µM); 0.196 with AT9283 + Pictilisib (first compound 0.3 µM). Besides, the relative viability in the test with AT9283 + AZD7762 (first compound 0.003 µM) was 0.968; with AT9283 + AZD7762 (first compound 0.03 µM), 0.969; with AT9283 + AZD7762 (first compound 0.09487 µM), 0.749; with AT9283 + AZD7762 (first compound 0.3 µM), 0.353; in the test with AT9283 + Vorinostat (first compound 0.003 µM), 0.775; in the test with AT9283 + Vorinostat (first compound 0.03 µM), 0.755. Moreover, the relative viability with AT9283 + Vorinostat (first compound 0.09487 µM) was found to be 0.631; in the test with AT9283 + Vorinostat (first compound 0.3 µM), 0.305.
